In patent US20140273139A1, “Direct Fermentation of Biomass to Fuel Precursors” (Innovative Metabolism Inc., priority 2013, published 2014):

Tests used:
P. chrysosporium [1] = assay: Submerged liquid fermentation in the presence of air and gaseous mitochondrial inhibitor (GC-MS of headspace); format: cell-based, Phanerochaete chrysosporium; conditions: aerobic culture, NO target concentration 1 μM, 2% glucose, 37° C.
Method: In this experiment P. chrysosporium was grown from conidiospores in submerged liquid culture. The growth medium was Highley's Basal salts [Wymelenberg, A. V., et al., The Phanerochaete chrysosporium secretome: database predictions and initial mass spectrometry peptide identifications in cellulose-grown medium. J Biotechnol, 2005. 118(1): p. 17-34.] supplemented with 0.1% yeast extract (YE) and 2% glucose. Conidiospores were inoculated in liquid medium in 3 neck flasks. The temperature was maintained at 37° C. The cultures were mixed using magnetic stir bars and gasses (air, nitrogen, and air supplemented with nitric oxide (NO)) were bubbled through the medium using stainless steel needles. Fungi were grown: 1) aerobically; 2) anaerobically; and 3) aerobically with NO delivered to a target concentration of 1 μM. Cultures were sampled daily and analyzed using GC-MS (FIG. 3). P. chrysosporium grew rapidly forming large, encapsulated masses of material.
The identity of the ethanol peak was confirmed by MS analysis. Samples were transferred to glass septum vials and heated to 60° C. A gas-tight syringe was used to sample 50 μl from the headspace. Samples were analyzed on a 6890N GC system with a 5975 Mass Selective Detector (Agilent) using a PH Innowax column.

P. chrysosporium [2] = assay: Solid-state fermentation of corn stover by P. chrysosporium in the presence of carbon monoxide; format: cell-based, Phanerochaete chrysosporium; conditions: 10% air and 90% CO, through Day 44
Method: In this example solvent fermentation was initiated by introduction of a mix of 10% air and 90% CO. Corn stover was prepared as described in Example 7. P. chrysosporium conidiospores and mycelia harvested from agar medium were added to the stover and the mixture was transferred to the rotating drum of the solid-state bioreactor under sterile conditions. The bioreactor was sealed and placed in a 44° C. incubator. The volume of gas flow remained constant at 10 ml/min for the entire experiment.
The fermentor was run aerobically for 45 hours to establish growth. Between hour 45 and Day 44 a gas mix comprised of 10% air and 90% CO was flowed through the system. Fungal metabolic activity was restored by flowing air through the system from Day 51-55. From Day 57-65 the fermentation was run anaerobically in the absence of CO. Fungal metabolic activity was again restored by aerobic growth from Day 65-68, and then anaerobic fermentation was continued from Day 68-82.

[3] = test system: P. chrysosporium and K. marxianus; assay: Solid-state fermentation of corn stover by consortium in the presence of carbon monoxide; format: cell-based, Phanerochaete chrysosporium / Kluyveromyces marxianus; conditions: 90% CO and 10% air, first 27 days
Method: In this example, solvent-producing fermentation was initiated by introduction of a mix of air and CO, a competitive inhibitor of cytochrome c oxidase. Corn stover was prepared as described in Example 7. A mixture of P. chrysosporium conidiospores and mycelia harvested from agar medium, and 1 ml of K. marxianus from an overnight culture in YPD broth were added to the stover. The mixture was transferred to the rotating drum of the solid-state bioreactor under sterile conditions. The bioreactor was sealed and placed in a 44° C. incubator.
Growth was established under aerobic conditions (10 ml/min of air was flowed through the bioreactor for 17 hours). Fermentation was initiated by flowing a mixture comprised of 90% CO and 10% air through the bioreactor. During the first 27 days productivity peaked at 2.3×10^−5 g solvent/hr/g biomass remaining and yield for the period was 5.7% of biomass consumed (FIG. 8).

P. chrysosporium [4] = assay: Submerged liquid fermentation under reduced oxygen with the mitochondrial inhibitor rotenone (GC-MS, standard curves); format: cell-based, Phanerochaete chrysosporium
Method: In this experiment P. chrysosporium was grown from conidiospores in submerged liquid culture. The growth medium was Highley's Basal salts [Wymelenberg, A. V., et al., The Phanerochaete chrysosporium secretome: database predictions and initial mass spectrometry peptide identifications in cellulose-grown medium. J Biotechnol, 2005. 118(1): p. 17-34.] supplemented with 0.1% yeast extract (YE) and 2% glucose. Conidiospores were inoculated in 50 ml of liquid medium in a 250 ml Erlenmyer flask which was then capped with a 3-piece fermentation lock to prevent evaporation of volatile products and to allow the culture to incubate in a reduced oxygen environment. The culture was incubated statically.
A large mass of fungus was produced and remained suspended near the top of the medium. Samples were collected, transferred to glass septum vials and heated to 60° C. Samples were analyzed on a 6890N GC system with a 5975 Mass Selective Detector (Agilent) using a PH Innowax column. […] Standard curves were performed for each solvent. The concentrations in the fermentation broth were determined to be 0.74 mM for acetone, 1.8 mM for isopropanol, and 1.9 mM for ethanol. This experiment provided the first indication that P. chrysosporium was capable of fermenting sugars to acetone and isopropanol.

[5] = rotenone-treated, reduced oxygen, static culture

For nitric oxide, the “ethanol production by the culture” value (P. chrysosporium [1]) was “appeared to enable ethanol production in the presence of dissolved oxygen”.

With `[C-]#[O+]` [CO, carbon monoxide] the “acetone share of solvent mix” value (P. chrysosporium [2]) was 28%, the “ethanol share of solvent mix” value (P. chrysosporium [2]) was 72% and the “isopropanol share of solvent mix” value (P. chrysosporium [2]) was “only trace amounts”. The solvents produced [3] was “Ethanol was the only solvent produced in significant quantities”, the peak productivity ([3]; 44° C.) was 2.3×10^−5 g solvent/hr/g biomass remaining and the solvent yield ([3]; 44° C.) was 5.7 % of biomass consumed.

In the case of `C=C(C)[C@H]1Cc2c(ccc3c2O[C@@H]2COc4cc(OC)c(OC)cc4[C@@H]2C3=O)O1` [Rotenone, rotenone], the “solvents produced in the presence of the inhibitor” value (P. chrysosporium [4]; liquid culture, oxygen-limited conditions, glucose) is reported as “production of acetone, isopropanol and ethanol”, the “acetone concentration in the fermentation broth” value (P. chrysosporium [4]; [5]) is reported as 0.74 mM and the “ethanol concentration in the fermentation broth” value (P. chrysosporium [4]; [5]) is reported as 1.9 mM. The “isopropanol concentration in the fermentation broth” value (P. chrysosporium [4]; [5]) was 1.8 mM.
